Common to all, as to format: cell-based
The target in one experiment is T1, human TLR9 (Homo sapiens, UniProt Q9NR96).
T1 construct: host or cells: HEK-Blue cells
T1 sequence (Q9NR96 26-1032): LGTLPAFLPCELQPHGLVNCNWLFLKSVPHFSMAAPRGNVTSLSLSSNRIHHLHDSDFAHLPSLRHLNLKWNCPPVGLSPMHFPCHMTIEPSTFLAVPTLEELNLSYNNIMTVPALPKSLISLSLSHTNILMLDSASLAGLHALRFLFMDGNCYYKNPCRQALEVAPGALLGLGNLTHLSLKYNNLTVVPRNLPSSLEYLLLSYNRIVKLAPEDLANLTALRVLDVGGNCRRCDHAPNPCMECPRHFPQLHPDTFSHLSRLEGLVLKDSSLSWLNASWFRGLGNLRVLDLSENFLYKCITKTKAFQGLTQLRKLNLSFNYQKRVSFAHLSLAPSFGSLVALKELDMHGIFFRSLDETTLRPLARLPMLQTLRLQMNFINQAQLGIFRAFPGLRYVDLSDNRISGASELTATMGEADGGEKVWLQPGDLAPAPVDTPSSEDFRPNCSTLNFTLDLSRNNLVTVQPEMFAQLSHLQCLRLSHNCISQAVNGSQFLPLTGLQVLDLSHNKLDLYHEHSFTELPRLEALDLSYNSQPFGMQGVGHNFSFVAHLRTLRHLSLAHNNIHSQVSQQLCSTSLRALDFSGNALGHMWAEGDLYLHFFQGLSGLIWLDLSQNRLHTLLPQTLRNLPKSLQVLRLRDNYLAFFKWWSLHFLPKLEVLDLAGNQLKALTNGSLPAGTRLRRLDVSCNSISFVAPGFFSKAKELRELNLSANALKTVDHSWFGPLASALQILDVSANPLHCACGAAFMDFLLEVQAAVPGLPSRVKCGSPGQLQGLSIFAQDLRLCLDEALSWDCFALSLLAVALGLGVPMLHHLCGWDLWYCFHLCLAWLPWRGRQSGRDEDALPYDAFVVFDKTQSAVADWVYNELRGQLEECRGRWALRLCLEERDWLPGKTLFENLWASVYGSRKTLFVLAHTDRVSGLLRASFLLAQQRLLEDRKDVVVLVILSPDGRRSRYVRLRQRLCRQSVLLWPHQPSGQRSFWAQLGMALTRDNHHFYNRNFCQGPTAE
Briefly: TLR9 inhibition reporter assay (HEK-Blue cells, SEAP reporter, ODN2006 stimulation). Conditions: HEK-Blue cells overexpressing human TLR9, SEAP reporter, ODN2006 5 nM. The method, boiled down:
(§1)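 HEK-Blue cells with NF-κB/AP-1-driven SEAP reporter, pre-treated 30 min at room temperature with compound (0.05 nM-50 μM). Stimulants: gardiquimod 7.5 μM (TLR7), R848 15.9 μM (TLR8) or ODN2006 5 nM (TLR9). SEAP measured after 22 h at 37° C.; percent inhibition versus agonist-plus-DMSO and known-inhibitor wells.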
Background: In a reporter assay the amount or activity of a reporter protein is the signal.

A further experiment addresses T2, human TLR8 (Homo sapiens, UniProt Q9NR97).
T2 construct: host or cells: HEK-Blue cells
T2 sequence (Q9NR97 27-1041): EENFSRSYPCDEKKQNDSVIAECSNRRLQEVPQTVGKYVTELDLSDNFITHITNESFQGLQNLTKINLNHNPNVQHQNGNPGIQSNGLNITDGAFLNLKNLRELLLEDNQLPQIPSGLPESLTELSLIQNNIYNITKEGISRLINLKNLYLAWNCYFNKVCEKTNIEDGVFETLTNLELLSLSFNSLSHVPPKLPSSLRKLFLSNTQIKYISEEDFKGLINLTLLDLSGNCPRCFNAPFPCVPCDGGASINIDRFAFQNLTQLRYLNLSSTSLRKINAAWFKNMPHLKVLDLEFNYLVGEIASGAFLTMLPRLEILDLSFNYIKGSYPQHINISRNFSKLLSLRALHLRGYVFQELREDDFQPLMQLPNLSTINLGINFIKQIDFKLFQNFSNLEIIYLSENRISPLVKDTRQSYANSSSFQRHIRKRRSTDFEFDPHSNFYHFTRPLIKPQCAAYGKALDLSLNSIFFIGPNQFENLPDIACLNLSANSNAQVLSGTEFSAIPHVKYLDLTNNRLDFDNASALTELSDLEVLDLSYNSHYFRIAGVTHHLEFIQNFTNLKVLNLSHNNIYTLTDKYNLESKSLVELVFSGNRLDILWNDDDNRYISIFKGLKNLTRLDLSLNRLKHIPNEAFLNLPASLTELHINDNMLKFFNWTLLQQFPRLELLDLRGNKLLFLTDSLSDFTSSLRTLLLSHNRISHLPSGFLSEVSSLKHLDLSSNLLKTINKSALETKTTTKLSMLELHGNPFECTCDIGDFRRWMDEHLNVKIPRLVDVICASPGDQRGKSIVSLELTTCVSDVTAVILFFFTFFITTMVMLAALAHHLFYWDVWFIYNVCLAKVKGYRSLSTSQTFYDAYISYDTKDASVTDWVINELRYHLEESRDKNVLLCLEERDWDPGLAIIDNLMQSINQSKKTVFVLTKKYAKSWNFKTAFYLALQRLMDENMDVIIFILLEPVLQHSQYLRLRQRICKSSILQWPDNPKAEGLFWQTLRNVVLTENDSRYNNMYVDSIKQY
Description: TLR8 inhibition reporter assay (HEK-Blue cells, SEAP reporter, R848 stimulation). Conditions: HEK-Blue cells overexpressing human TLR8, SEAP reporter, R848 15.9 μM. The method, boiled down:
as §1

For a further experiment, the target named is T3, human TLR7 (Homo sapiens, UniProt Q9NYK1).
T3 construct: host or cells: HEK-Blue cells
T3 sequence (Q9NYK1 27-1049): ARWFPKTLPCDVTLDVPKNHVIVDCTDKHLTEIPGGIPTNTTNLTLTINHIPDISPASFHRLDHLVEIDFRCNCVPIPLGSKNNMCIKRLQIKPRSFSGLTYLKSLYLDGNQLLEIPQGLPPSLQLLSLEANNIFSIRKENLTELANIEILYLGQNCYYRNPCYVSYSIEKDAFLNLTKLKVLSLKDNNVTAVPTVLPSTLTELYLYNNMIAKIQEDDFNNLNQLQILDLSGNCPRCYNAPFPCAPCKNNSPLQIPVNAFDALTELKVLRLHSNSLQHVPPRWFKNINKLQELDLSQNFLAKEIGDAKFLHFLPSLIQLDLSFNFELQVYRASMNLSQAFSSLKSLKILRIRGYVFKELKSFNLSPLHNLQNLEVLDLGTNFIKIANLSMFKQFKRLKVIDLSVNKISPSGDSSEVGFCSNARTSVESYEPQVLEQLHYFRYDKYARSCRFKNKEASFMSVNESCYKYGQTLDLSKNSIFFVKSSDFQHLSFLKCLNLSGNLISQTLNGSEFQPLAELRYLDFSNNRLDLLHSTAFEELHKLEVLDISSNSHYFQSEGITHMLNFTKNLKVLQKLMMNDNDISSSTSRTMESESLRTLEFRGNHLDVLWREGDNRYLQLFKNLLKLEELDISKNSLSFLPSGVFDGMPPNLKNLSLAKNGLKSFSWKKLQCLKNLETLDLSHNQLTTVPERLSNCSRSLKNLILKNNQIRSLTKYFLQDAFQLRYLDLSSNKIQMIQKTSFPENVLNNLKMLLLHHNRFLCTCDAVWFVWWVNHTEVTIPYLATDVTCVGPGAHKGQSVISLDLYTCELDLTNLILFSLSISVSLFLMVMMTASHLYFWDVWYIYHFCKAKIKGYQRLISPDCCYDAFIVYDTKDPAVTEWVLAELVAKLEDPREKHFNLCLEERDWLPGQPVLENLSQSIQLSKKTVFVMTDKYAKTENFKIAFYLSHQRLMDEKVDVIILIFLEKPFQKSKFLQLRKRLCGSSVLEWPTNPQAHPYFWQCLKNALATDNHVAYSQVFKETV
Briefly: TLR7 inhibition reporter assay (HEK-Blue cells, SEAP reporter, gardiquimod stimulation). Conditions: HEK-Blue cells overexpressing human TLR7, SEAP reporter, gardiquimod 7.5 μM. The method, boiled down:
as §1

The structures appear in SMILES notation.

`COc1cc(-c2[nH]c3ccc(C4CCCNC4)cc3c2C(C)C)cn2ncnc12` (single isomer, unassigned) [Example 183]: the IC50 against human TLR9 worked out at 4630 nM; against human TLR8, 7.9 nM; on human TLR7, 2 nM.

On to `COc1cc(-c2[nH]c3ccc(C4CCCN(C(C)C)C4)cc3c2C(C)C)cn2ncnc12` (single isomer, unassigned) [Example 239], for which the values for the IC50 against human TLR9, against human TLR8 and against human TLR7 were 1370 nM, 3 nM and 2 nM, respectively.

As to `COCCN1CCCC(c2ccc3[nH]c(-c4cc(OC)c5ncnn5c4)c(C(C)C)c3c2)C1` (single isomer, unassigned) [Example 252], the results for the half-inhibitory concentration (IC50) on human TLR9, against human TLR8 and at human TLR7 were 1160 nM, 1.6 nM and 2 nM, respectively.

As for `COc1cc(-c2[nH]c3ccc(C4CCC(N(C)C(C)C)C4)cc3c2C(C)C)cn2ncnc12` (single isomer, unassigned) [Example 275, N-isopropyl-3-(3-isopropyl-2-(8-methoxy-[1,2,4]triazolo[1,5-a]pyridin-6-yl)-1H-indol-5-yl)-N-methylcyclopentan-1-amine], the IC50 turned out to be 1270 nM against human TLR9, 0.23 nM on human TLR8 and 0.86 nM against human TLR7.

`COc1cc(-c2[nH]c3ccc(C4CCC(N(C)C(C)C)C4)cc3c2C(C)C)cn2ncnc12` (single isomer, unassigned) [Example 276, N-isopropyl-3-(3-isopropyl-2-(8-methoxy-[1,2,4]triazolo[1,5-a]pyridin-6-yl)-1H-indol-5-yl)-N-methylcyclopentan-1-amine]: the results for the concentration for half-maximal inhibition (IC50) against human TLR9, against human TLR8 and on human TLR7 were 468 nM, 0.9 nM and 0.64 nM, respectively.

`COc1cc(-c2[nH]c3ccc(C4CCC(N(C)C(C)C)C4)cc3c2C(C)C)cn2ncnc12` (single isomer, unassigned) [Example 277, N-isopropyl-3-(3-isopropyl-2-(8-methoxy-[1,2,4]triazolo[1,5-a]pyridin-6-yl)-1H-indol-5-yl)-N-methylcyclopentan-1-amine]: the values for the IC50 against human TLR9, against human TLR8 and on human TLR7 were 801 nM, 4.4 nM and 2 nM, respectively.

Regarding `COc1cc(-c2[nH]c3ccc(C4CCC(N(C)C(C)C)C4)cc3c2C(C)C)cn2ncnc12` (single isomer, unassigned) [Example 278, N-isopropyl-3-(3-isopropyl-2-(8-methoxy-[1,2,4]triazolo[1,5-a]pyridin-6-yl)-1H-indol-5-yl)-N-methylcyclopentan-1-amine], the values for the IC50 on human TLR9, on human TLR8 and on human TLR7 were 1410 nM, 1.5 nM and 2 nM, respectively.

`Cc1cc(-c2[nH]c3ccc(C4CN(CC(=O)N(C)C)CCO4)cc3c2C(C)C)cn2ncnc12` (single isomer, unassigned) [Example 308]: the IC50 is greater than 50000 nM against human TLR9, 18 nM on human TLR8 and 8 nM at human TLR7.

As to `Cc1cc(-c2[nH]c3ccc(C4CN(CC(=O)N(C)C)CCO4)cc3c2C(C)C)cn2ncnc12` (single isomer, unassigned) [Example 316], the IC50 at human TLR9 is greater than 50000 nM; against human TLR8 it was 55 nM; against human TLR7 it was 9 nM.

For `Cc1cc(-c2[nH]c3ccc(C4CN(CC(C)(C)O)CCO4)cc3c2C(C)C)cn2ncnc12` (single isomer, unassigned) [Example 356], the IC50 was found to be 6990 nM against human TLR9, 4.6 nM on human TLR8 and 6 nM against human TLR7.

Turning to `Cc1cc(-c2[nH]c3ccc(C4CN5CCC4CC5)cc3c2C(C)C)cc(C)n1` (single isomer, unassigned) [Example 362, 3-(2-(2,6-dimethylpyridin-4-yl)-3-isopropyl-1H-indol-5-yl)quinuclidine], the IC50 against human TLR9 was found to be 432 nM; on human TLR8, 14 nM; at human TLR7, 6 nM.

In the case of `Cc1cc(-c2[nH]c3ccc(C4CN5CCC4CC5)cc3c2C(C)C)cc(C)n1` (single isomer, unassigned) [Example 363, 3-(2-(2,6-dimethylpyridin-4-yl)-3-isopropyl-1H-indol-5-yl)quinuclidine], the values for the concentration for half-maximal inhibition (IC50) on human TLR9, at human TLR8 and against human TLR7 were 438 nM, 5.3 nM and 2 nM, respectively.

`Cc1cc(-c2[nH]c3ccc(C4CN(C(=O)CN(C)C)C(C)(C)CO4)cc3c2C(C)C)cn2ncnc12` (single isomer, unassigned) [Example 372, 2-(dimethylamino)-1-(2-(3-isopropyl-2-(8-methyl-[1,2,4]triazolo[1,5-a]pyridin-6-yl)-1H-indol-5-yl)-5,5-dimethylmorpholino)ethanone]: the IC50 against human TLR9 turned out to be 26700 nM; against human TLR8 it was 11 nM; on human TLR7, 8 nM.

For `Cc1cc(-c2[nH]c3ccc(C4CN(C(=O)CN(C)C)C(C)(C)CO4)cc3c2C(C)C)cn2ncnc12` (single isomer, unassigned) [Example 373, 2-(dimethylamino)-1-(2-(3-isopropyl-2-(8-methyl-[1,2,4]triazolo[1,5-a]pyridin-6-yl)-1H-indol-5-yl)-5,5-dimethylmorpholino)ethanone], the concentration for half-maximal inhibition (IC50) at human TLR9 was greater than 50000 nM; against human TLR8, 36 nM; against human TLR7 it was 6 nM.

Usually IC50 stands for the concentration that gives 50% inhibition. A low value points to higher potency.

Values taken from US11878975B2, “Substituted indole compounds useful as TLR inhibitors” (BRISTOL-MYERS SQUIBB COMPANY, priority 2017, dated 2024).
